Assays:
Assay in all cases: radiometric filter-binding kinase assay, Kinase HotSpot
Settings in all cases: compound 0.5 µM; ATP 10 µM
ACVR1 (human) = ACVR1 (human) (UniProt Q04771)
ACVRL1 (human) = ACVRL1 (human) (UniProt P37023)
AURKB (human) = AURKB (human) (UniProt Q96GD4)
CAMK1 (human) = CAMK1 (human) (UniProt Q14012)
CDK4 CCND1 (human) = CDK4 CCND1 (human) (UniProt P24385+P11802)
CDK5 CDK5R1 p25 (human) = CDK5 CDK5R1 p25 (human) (UniProt Q00535+Q15078)
CLK1 (human) = CLK1 (human) (UniProt P49759)
Sequence of CLK1 (human) (P49759 whole entry, looked up): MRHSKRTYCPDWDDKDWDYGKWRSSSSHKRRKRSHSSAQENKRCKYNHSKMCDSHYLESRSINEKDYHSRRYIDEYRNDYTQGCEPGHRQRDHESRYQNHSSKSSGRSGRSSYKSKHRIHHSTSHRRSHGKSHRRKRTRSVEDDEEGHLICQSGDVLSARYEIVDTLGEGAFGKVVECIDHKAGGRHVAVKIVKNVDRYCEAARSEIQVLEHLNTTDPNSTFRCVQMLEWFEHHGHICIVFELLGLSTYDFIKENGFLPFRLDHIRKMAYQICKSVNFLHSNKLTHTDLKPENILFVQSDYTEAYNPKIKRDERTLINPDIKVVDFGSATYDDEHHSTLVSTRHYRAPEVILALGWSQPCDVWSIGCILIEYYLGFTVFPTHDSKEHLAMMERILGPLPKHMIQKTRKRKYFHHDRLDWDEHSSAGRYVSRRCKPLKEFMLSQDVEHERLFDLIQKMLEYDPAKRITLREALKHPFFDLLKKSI

CSNK1G2 (human) = CSNK1G2 (human) (UniProt P78368)
DYRK4 (human) = DYRK4 (human) (UniProt Q9NR20)
EPHA5 (human) = EPHA5 (human) (UniProt P54756)
Sequence of EPHA5 (human) (P54756 whole entry, looked up): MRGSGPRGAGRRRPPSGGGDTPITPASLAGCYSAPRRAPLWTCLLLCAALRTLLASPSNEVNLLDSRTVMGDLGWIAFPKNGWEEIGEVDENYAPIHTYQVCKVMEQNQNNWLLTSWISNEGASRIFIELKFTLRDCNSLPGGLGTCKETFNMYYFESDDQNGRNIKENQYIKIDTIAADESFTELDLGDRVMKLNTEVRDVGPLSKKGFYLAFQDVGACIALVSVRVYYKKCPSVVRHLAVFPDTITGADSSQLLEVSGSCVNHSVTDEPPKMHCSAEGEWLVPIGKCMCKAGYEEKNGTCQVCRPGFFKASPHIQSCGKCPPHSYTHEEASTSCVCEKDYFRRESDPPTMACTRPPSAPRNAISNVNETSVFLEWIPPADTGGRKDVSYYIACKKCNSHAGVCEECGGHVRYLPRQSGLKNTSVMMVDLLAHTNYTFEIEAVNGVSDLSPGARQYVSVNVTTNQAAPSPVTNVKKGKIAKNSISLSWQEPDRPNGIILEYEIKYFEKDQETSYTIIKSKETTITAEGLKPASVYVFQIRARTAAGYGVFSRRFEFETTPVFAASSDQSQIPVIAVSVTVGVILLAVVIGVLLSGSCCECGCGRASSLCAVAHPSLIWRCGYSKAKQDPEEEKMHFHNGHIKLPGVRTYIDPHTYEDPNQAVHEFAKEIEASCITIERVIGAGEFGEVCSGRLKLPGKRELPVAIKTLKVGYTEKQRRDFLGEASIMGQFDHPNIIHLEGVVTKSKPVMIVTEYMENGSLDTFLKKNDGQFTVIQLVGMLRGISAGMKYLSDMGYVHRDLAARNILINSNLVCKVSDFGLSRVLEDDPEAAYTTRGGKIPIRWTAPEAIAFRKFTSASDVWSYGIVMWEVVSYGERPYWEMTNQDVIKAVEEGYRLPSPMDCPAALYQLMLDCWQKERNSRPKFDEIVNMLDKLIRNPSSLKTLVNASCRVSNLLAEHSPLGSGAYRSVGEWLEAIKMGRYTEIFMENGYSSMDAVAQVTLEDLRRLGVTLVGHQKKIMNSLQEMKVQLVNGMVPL

EPHB1 (human) = EPHB1 (human) (UniProt P54762)
EPHB3 (human) = EPHB3 (human) (UniProt P54753)
Sequence of EPHB3 (human) (P54753 whole entry, looked up): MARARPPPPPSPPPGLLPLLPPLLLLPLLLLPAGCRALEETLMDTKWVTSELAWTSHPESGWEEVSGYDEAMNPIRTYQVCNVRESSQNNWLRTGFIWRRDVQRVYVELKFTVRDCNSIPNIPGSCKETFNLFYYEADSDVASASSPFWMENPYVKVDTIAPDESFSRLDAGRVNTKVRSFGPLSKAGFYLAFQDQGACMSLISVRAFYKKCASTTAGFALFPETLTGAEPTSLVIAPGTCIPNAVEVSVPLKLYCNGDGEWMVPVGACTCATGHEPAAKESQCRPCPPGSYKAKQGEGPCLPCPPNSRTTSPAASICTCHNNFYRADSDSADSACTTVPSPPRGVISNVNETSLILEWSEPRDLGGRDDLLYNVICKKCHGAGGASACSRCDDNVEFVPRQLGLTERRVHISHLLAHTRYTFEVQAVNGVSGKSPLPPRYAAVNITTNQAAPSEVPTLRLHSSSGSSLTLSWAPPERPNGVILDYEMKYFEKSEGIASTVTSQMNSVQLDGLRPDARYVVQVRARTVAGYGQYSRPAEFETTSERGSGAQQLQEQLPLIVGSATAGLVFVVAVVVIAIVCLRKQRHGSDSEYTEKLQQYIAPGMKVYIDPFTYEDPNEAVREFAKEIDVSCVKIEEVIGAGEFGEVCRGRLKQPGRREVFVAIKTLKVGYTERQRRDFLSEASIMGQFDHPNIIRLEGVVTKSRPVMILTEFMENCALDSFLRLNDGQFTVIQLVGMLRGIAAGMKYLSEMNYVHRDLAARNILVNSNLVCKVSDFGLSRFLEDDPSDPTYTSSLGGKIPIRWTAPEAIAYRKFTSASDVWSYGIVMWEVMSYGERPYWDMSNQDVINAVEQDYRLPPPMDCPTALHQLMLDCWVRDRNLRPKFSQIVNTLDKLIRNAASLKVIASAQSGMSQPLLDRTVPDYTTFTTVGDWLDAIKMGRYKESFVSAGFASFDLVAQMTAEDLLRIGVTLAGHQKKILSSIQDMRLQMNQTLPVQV

HIPK2 (human) = HIPK2 (human) (UniProt Q9H2X6)
IKBKE (human) = IKBKE (human) (UniProt Q14164)
JAK3 JH1 JH2 (human) = JAK3 JH1 JH2 (human) (UniProt P52333)
MAP2K2 (human) = MAP2K2 (human) (UniProt P36507)
MAP3K14 (human) = MAP3K14 (human) (UniProt Q99558)
MAP3K2 (human) = MAP3K2 (human) (UniProt Q9Y2U5)
MAP3K3 (human) = MAP3K3 (human) (UniProt Q99759)
MAP3K7 TAB1 (human) = MAP3K7 TAB1 (human) (UniProt O43318+Q15750)
MAP4K4 (human) = MAP4K4 (human) (UniProt O95819)
MAP4K5 (human) = MAP4K5 (human) (UniProt Q9Y4K4)
MAPK10 (human) = MAPK10 (human) (UniProt P53779)
MARK3 (human) = MARK3 (human) (UniProt P27448)
MINK1 (human) = MINK1 (human) (UniProt Q8N4C8)
PIM1 (human) = PIM1 (human) (UniProt P11309)
PLK3 (human) = PLK3 (human) (UniProt Q9H4B4)
PRKCA (human) = PRKCA (human) (UniProt P17252)
PRKCB2 (human) = PRKCB2 (human) (UniProt P05771)
PRKCH (human) = PRKCH (human) (UniProt P24723)
PRKX (human) = PRKX (human) (UniProt P51817)
Sequence of PRKX (human) (P51817 whole entry, looked up): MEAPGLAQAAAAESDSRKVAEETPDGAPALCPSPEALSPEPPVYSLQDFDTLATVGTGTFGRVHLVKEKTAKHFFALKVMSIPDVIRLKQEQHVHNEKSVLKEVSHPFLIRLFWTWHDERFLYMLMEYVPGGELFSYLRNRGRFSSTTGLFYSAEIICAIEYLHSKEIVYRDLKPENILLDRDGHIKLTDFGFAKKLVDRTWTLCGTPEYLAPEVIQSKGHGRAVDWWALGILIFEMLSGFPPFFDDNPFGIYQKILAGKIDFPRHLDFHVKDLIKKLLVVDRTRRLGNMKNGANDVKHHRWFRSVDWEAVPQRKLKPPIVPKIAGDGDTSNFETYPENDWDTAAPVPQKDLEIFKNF

PTK6 (human) = PTK6 (human) (UniProt Q13882)
[1] = tested on: SGK1 (human), O00141 [S422D]
SLK (human) = SLK (human) (UniProt Q9H2G2)
SRPK1 (human) = SRPK1 (human) (UniProt Q96SB4)
SRPK3 (human) = SRPK3 (human) (UniProt Q9UPE1)
Sequence of SRPK3 (human) (Q9UPE1 whole entry, looked up): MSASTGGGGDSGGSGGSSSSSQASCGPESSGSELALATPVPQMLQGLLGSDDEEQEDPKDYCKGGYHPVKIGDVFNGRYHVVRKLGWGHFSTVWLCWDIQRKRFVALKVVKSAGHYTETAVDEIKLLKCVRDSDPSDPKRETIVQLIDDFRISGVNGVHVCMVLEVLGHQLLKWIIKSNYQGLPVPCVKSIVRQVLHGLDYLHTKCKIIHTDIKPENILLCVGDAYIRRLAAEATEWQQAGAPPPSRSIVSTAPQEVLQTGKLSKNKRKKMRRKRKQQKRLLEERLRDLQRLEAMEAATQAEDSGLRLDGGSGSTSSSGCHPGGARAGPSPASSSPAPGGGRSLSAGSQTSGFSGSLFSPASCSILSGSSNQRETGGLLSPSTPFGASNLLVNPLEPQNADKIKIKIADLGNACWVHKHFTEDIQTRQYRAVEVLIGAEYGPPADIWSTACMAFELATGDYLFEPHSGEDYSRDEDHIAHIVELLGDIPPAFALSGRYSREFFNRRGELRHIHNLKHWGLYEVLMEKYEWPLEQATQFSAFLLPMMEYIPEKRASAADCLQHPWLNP

STK16 (human) = STK16 (human) (UniProt O75716)
TBK1 (human) = TBK1 (human) (UniProt Q9UHD2)
TEC (human) = TEC (human) (UniProt P42680)
Sequence of TEC (human) (P42680 whole entry, looked up): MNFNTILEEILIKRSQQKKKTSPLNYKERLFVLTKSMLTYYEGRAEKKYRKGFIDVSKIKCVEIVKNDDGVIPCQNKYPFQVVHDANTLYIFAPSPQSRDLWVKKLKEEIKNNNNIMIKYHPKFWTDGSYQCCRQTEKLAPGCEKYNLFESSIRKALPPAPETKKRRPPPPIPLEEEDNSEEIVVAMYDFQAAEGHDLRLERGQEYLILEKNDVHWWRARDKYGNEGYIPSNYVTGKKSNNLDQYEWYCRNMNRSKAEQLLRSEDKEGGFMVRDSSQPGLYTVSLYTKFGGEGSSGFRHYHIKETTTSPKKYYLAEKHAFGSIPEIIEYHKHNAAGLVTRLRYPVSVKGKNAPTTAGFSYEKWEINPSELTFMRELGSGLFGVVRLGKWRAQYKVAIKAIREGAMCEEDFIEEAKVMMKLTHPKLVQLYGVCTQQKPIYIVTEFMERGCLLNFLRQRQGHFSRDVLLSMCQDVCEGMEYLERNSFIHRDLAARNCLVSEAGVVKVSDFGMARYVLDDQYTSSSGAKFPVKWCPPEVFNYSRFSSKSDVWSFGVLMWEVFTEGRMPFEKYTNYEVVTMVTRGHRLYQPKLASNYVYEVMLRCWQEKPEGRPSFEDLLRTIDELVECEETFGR

TTK (human) = TTK (human) (UniProt P33981)
TYRO3 (human) = TYRO3 (human) (UniProt Q06418)
WNK3 (human) = WNK3 (human) (UniProt Q9BYP7)

Sequence of CDK4 CCND1 (human) (P11802 whole entry, looked up): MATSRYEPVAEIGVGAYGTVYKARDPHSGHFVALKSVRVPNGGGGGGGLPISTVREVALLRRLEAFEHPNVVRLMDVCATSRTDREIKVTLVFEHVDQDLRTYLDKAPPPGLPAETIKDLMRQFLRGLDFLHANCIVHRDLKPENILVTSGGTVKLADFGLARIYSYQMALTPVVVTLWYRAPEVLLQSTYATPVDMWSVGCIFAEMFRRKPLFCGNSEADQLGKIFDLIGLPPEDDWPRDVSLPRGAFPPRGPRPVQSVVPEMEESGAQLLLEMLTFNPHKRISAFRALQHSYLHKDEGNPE
Sequence of CDK4 CCND1 (human) (P24385 whole entry, looked up): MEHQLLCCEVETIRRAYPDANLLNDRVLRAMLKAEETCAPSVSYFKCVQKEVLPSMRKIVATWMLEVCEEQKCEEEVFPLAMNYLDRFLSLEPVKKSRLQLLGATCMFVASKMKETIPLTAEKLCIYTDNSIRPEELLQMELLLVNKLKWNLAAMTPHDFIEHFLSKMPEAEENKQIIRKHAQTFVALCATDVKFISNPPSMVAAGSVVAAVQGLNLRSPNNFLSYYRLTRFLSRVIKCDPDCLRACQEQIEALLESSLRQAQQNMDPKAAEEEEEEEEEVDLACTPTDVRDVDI
Sequence of AURKB (human) (Q96GD4 whole entry, looked up): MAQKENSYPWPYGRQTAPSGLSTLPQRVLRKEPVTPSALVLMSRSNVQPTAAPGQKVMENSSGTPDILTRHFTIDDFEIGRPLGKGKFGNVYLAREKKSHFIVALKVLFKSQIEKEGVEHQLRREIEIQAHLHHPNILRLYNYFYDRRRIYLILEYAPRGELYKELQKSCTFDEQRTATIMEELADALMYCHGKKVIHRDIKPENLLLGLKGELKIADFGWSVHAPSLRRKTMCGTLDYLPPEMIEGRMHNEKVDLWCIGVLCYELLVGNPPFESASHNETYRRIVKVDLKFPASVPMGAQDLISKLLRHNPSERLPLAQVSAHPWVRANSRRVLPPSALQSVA

COc1cccc(-c2cc(=O)c3ccccc3o2)c1N
residual activity (ACVR1 (human)): 92.7% | residual activity (ACVRL1 (human)): 93.5% | residual activity (AURKB (human)): 102% | residual activity (CAMK1 (human)): 98.5% | residual activity (CDK4 CCND1 (human)): 100% | residual activity (CDK5 CDK5R1 p25 (human)): 87.5% | residual activity (CLK1 (human)): 97.7% | residual activity (CSNK1G2 (human)): 98.4% | residual activity (DYRK4 (human)): 108% | residual activity (EPHA5 (human)): 97.9% | residual activity (EPHB1 (human)): 88% | residual activity (EPHB3 (human)): 91.9% | residual activity (HIPK2 (human)): 116% | residual activity (IKBKE (human)): 95.1% | residual activity (JAK3 JH1 JH2 (human)): 96.9% | residual activity (MAP2K2 (human)): 69.2% | residual activity (MAP3K14 (human)): 108% | residual activity (MAP3K2 (human)): 103% | residual activity (MAP3K3 (human)): 83% | residual activity (MAP3K7 TAB1 (human)): 98.7% | residual activity (MAP4K4 (human)): 97.2% | residual activity (MAP4K5 (human)): 91.1% | residual activity (MAPK10 (human)): 85.7% | residual activity (MARK3 (human)): 86.7% | residual activity (MINK1 (human)): 96.2% | residual activity (PIM1 (human)): 93.9% | residual activity (PLK3 (human)): 98% | residual activity (PRKCA (human)): 102% | residual activity (PRKCB2 (human)): 102% | residual activity (PRKCH (human)): 87% | residual activity (PRKX (human)): 101% | residual activity (PTK6 (human)): 92.6% | residual activity [1]: 102% | residual activity (SLK (human)): 102% | residual activity (SRPK1 (human)): 93.4% | residual activity (SRPK3 (human)): 91% | residual activity (STK16 (human)): 95.4% | residual activity (TBK1 (human)): 94.3% | residual activity (TEC (human)): 99.2% | residual activity (TTK (human)): 99% | residual activity (TYRO3 (human)): 96.9% | residual activity (WNK3 (human)): 96.3%

c1ccc(-c2cnc(Nc3ccc(OCCN4CCCC4)cc3)s2)cc1
residual activity (ACVR1 (human)): 164% | residual activity (ACVRL1 (human)): 108% | residual activity (AURKB (human)): 75.8% | residual activity (CAMK1 (human)): 86.3% | residual activity (CDK4 CCND1 (human)): 61.2% | residual activity (CDK5 CDK5R1 p25 (human)): 80.7% | residual activity (CLK1 (human)): 89.4% | residual activity (CSNK1G2 (human)): 100% | residual activity (DYRK4 (human)): 99.4% | residual activity (EPHA5 (human)): 97% | residual activity (EPHB1 (human)): 95.4% | residual activity (EPHB3 (human)): 93.3% | residual activity (HIPK2 (human)): 97.5% | residual activity (IKBKE (human)): 81.6% | residual activity (JAK3 JH1 JH2 (human)): 108% | residual activity (MAP2K2 (human)): 90.2% | residual activity (MAP3K14 (human)): 81.9% | residual activity (MAP3K2 (human)): 104% | residual activity (MAP3K3 (human)): 99.2% | residual activity (MAP3K7 TAB1 (human)): 102% | residual activity (MAP4K4 (human)): 35.5% | residual activity (MAP4K5 (human)): 72.5% | residual activity (MAPK10 (human)): 92.9% | residual activity (MARK3 (human)): 93.1% | residual activity (MINK1 (human)): 38.7% | residual activity (PIM1 (human)): 100% | residual activity (PLK3 (human)): 98% | residual activity (PRKCA (human)): 106% | residual activity (PRKCB2 (human)): 104% | residual activity (PRKCH (human)): 88.2% | residual activity (PRKX (human)): 101% | residual activity (PTK6 (human)): 80.8% | residual activity [1]: 83.6% | residual activity (SLK (human)): 96.7% | residual activity (SRPK1 (human)): 99.9% | residual activity (SRPK3 (human)): 98.2% | residual activity (STK16 (human)): 92% | residual activity (TBK1 (human)): 87.1% | residual activity (TEC (human)): 106% | residual activity (TTK (human)): 102% | residual activity (TYRO3 (human)): 90.9% | residual activity (WNK3 (human)): 99%

Reference: the kinase profiling compilation of Christmann-Franck et al. (2016)
